In brackets after ≈: the same amount, converted by molar mass.
system: multidrug resistant Staphylococcus aureus Mu3; assay: MIC by CLSI broth micro-dilution, MRSA Mu3; format: cell-based; conditions: MRSA, CLSI broth micro-dilution, CAMH, read-out: Minimum inhibitory concentration (μM) in MRSA Mu3
Protocol: Aminoxy acids were synthesized by the standard peptide coupling procedures. Minimum inhibitory concentration was determined using CLSI broth micro-dilution method in 96-wells microtitre plates. Minimum inhibitory concentration is defined as the lowest concentration of the compound that inhibits visible growth of the bacteria. All experiments were performed three times. 24 compounds including aminoxy acid monomers and dipeptides have been identified to show toxicity against multidrug resistant Staphylococcus aureus Mu3 and summarized in Table 1. The minimum inhibitory concentration of compound 8 and compound 35 on other gram-positive bacteria was also evaluated and summarized in Table 2. […] As shown in FIGS. 3A-3B there are no observable hemolysis for compound 8 and compound 35 towards human red blood cell.
Bacteria were streaked from the glycerol stock into BHI agar and were incubated overnight. Single colony was picked for the overnight culture in cation-adjusted Mueller Hinton broth (CAMH), LB or BHI. The overnight culture was sub-cultured and regrew to exponential phase for the experiment.
MIC was determined by CLSI broth micro-dilution method in 96-wells microtitre plates. For compounds dissolved in water, 100 μL of 2× testing concentration was added to the first well of each column, followed by two-fold serial dilution for successive wells with 50 μL medium. For chemical compounds dissolved in DMSO, the compounds were two-fold serial diluted by DMSO in a DMSO-compatible 96-well plate. 1 μL of compound in DMSO was transferred into 96-wells microtitre plate containing 50 μL medium to give 2× testing concentration. An overnight culture of bacteria was grown into exponential phase. The bacteria culture was diluted to 1×10^6 CFU/mL and 50 μL of diluted culture were added into each well. The test plates were kept in a 37° C. incubator overnight. Optical density was recorded by DTX 880 multimode detector (Beckman Coulter, California, US). MIC is defined as the lowest concentration of the compound that inhibits visible growth of bacteria. Biological replicates were performed. CAMH was used for bacteria culture and MIC test except S. pneumoniae, L. monocytogenes, E. faecalis and M. smegmatis for which BHI was used as culture medium

Row | Compound | MIC [µM]
1 | CC(C)C[C@H](ONC(=O)[C@@H](COCc1ccccc1)ONC(=O)c1cc(C(F)(F)F)cc(C(F)(F)F)c1)C(=O)NC1CC1 [Compound 28] | > 12.5
2 | CC(C)C[C@H](ONC(=O)[C@@H](COCc1ccccc1)ONC(=O)c1cc(C(F)(F)F)cc(C(F)(F)F)c1)C(=O)Nc1cccc2cc[nH]c12 [Compound 25] | 6.25 (≈ 4.34 µg/mL)
3 | CC(C)C[C@H](ONC(=O)[C@@H](COCc1ccccc1)ONC(=O)c1cc(C(F)(F)F)cc(C(F)(F)F)c1)C(=O)Nc1cncnc1 [Compound 27] | > 12.5
4 | C[C@@H](ONC(=O)[C@@H](COCc1ccccc1)ONC(=O)c1cc(C(F)(F)F)cc(C(F)(F)F)c1)C(=O)Nc1ccccc1 [Compound 17] | > 12.5
5 | CC(C)(C)OC(=O)[C@@H](COCc1ccccc1)ONC(=O)c1cc(C(F)(F)F)cc(C(F)(F)F)c1 [Compound 1] | 12.5 (≈ 6.34 µg/mL)
6 | CC(C)C[C@@H](ONC(=O)[C@H](COCc1ccccc1)ONC(=O)c1cc(C(F)(F)F)cc(C(F)(F)F)c1)C(=O)Nc1ccccc1 [Compound 7] | 3.13 (≈ 2.05 µg/mL)
7 | O=C(NO[C@H](COCc1ccccc1)C(=O)NO[C@H](COCc1ccccc1)C(=O)Nc1ccccc1)c1cc(C(F)(F)F)cc(C(F)(F)F)c1 [Compound 12] | 3.13 (≈ 2.25 µg/mL)
8 | CC(C)C[C@@H](ONC(=O)c1cc(C(F)(F)F)cc(C(F)(F)F)c1)C(=O)Nc1ccccc1 [Compound 3] | 3.13 (≈ 1.45 µg/mL)
9 | NCCCC[C@@H](ONC(=O)[C@@H](COCc1ccccc1)ONC(=O)c1cc(C(F)(F)F)cc(C(F)(F)F)c1)C(=O)Nc1ccccc1 [Compound 20] | > 12.5
10 | O=C(NO[C@H](COCc1ccccc1)C(=O)NO[C@H](CO)C(=O)Nc1ccccc1)c1cc(C(F)(F)F)cc(C(F)(F)F)c1 [Compound 15] | > 12.5
11 | CC(C)CNC(=O)[C@H](CC(C)C)ONC(=O)[C@@H](COCc1ccccc1)ONC(=O)c1cc(C(F)(F)F)cc(C(F)(F)F)c1 [Compound 24] | > 12.5
12 | O=C(NO[C@H](COCc1ccccc1)C(=O)NO[C@H](Cc1c[nH]c2ccccc12)C(=O)Nc1ccccc1)c1cc(C(F)(F)F)cc(C(F)(F)F)c1 [Compound 10] | 6.25 (≈ 4.55 µg/mL)
13 | COc1ccc(NC(=O)[C@H](CC(C)C)ONC(=O)[C@@H](COCc2ccccc2)ONC(=O)c2cc(C(F)(F)F)cc(C(F)(F)F)c2)cc1 [Compound 29] | 6.25 (≈ 4.29 µg/mL)
14 | O=C(NO[C@H](COCc1ccccc1)C(=O)Nc1ccccc1)c1cc(C(F)(F)F)cc(C(F)(F)F)c1 [Compound 2] | 6.25 (≈ 3.29 µg/mL)
15 | O=C(NO[C@H](COCc1ccccc1)C(=O)NO[C@@H](Cc1ccccc1)C(=O)Nc1ccccc1)c1cc(C(F)(F)F)cc(C(F)(F)F)c1 [Compound 11] | 3.13 (≈ 2.16 µg/mL)
16 | CC(C)(C)OC(=O)C[C@@H](ONC(=O)[C@@H](COCc1ccccc1)ONC(=O)c1cc(C(F)(F)F)cc(C(F)(F)F)c1)C(=O)Nc1ccccc1 [Compound 14] | 3.13 (≈ 2.23 µg/mL)
17 | CC(C)C[C@H](ONC(=O)[C@@H](COCc1ccccc1)ONC(=O)c1cc(C(F)(F)F)cc(C(F)(F)F)c1)C(=O)NC1CCCCC1 [Compound 22] | > 12.5
18 | Cc1cc(C)cc(NC(=O)[C@H](CC(C)C)ONC(=O)[C@@H](COCc2ccccc2)ONC(=O)c2cc(C(F)(F)F)cc(C(F)(F)F)c2)c1 [Compound 31] | 3.13 (≈ 2.14 µg/mL)
19 | CC(C)C[C@H](ONC(=O)[C@H](COCc1ccccc1)ONC(=O)c1cc(C(F)(F)F)cc(C(F)(F)F)c1)C(=O)Nc1ccccc1 [Compound 6] | 3.13 (≈ 2.05 µg/mL)
20 | O=C(CONC(=O)[C@@H](COCc1ccccc1)ONC(=O)c1cc(C(F)(F)F)cc(C(F)(F)F)c1)Nc1ccccc1 [Compound 16] | > 12.5
21 | CC(C)C[C@H](ONC(=O)[C@@H](COCc1ccccc1)ONC(=O)c1cc(C(F)(F)F)cc(C(F)(F)F)c1)C(=O)NC12CC3CC(CC(C3)C1)C2 [Compound 26] | 6.25 (≈ 4.46 µg/mL)
22 | CC(C)C[C@@H](ONC(=O)[C@@H](COCc1ccccc1)ONC(=O)c1cc(C(F)(F)F)cc(C(F)(F)F)c1)C(=O)Nc1ccccc1 [Compound 9] | 3.13 (≈ 2.05 µg/mL)
23 | CC(C)(C)OC(=O)NCCCC[C@@H](ONC(=O)[C@@H](COCc1ccccc1)ONC(=O)c1cc(C(F)(F)F)cc(C(F)(F)F)c1)C(=O)Nc1ccccc1 [Compound 19] | 12.5 (≈ 9.63 µg/mL)
24 | CC(C)(C)OC[C@@H](ONC(=O)[C@@H](COCc1ccccc1)ONC(=O)c1cc(C(F)(F)F)cc(C(F)(F)F)c1)C(=O)Nc1ccccc1 [Compound 13] | 6.25 (≈ 4.29 µg/mL)
25 | CC(C)C[C@H](ONC(=O)[C@@H](COCc1ccccc1)ONC(=O)c1cc(C(F)(F)F)cc(C(F)(F)F)c1)C(=O)Nc1nccs1 [Compound 21] | > 12.5
26 | CC(C)C[C@H](ONC(=O)[C@@H](COCc1ccccc1)ONC(=O)c1cc(C(F)(F)F)cc(C(F)(F)F)c1)C(=O)Nc1ccc2cc[nH]c2c1 [Compound 23] | > 12.5
27 | CC(C)C[C@H](ONC(=O)[C@@H](COCc1ccccc1)ONC(=O)c1cc(C(F)(F)F)cc(C(F)(F)F)c1)C(=O)OC(C)(C)C [Compound 5] | > 12.5
28 | CC(C)(C)OC(=O)[C@@H](COCc1ccccc1)ONC(=O)[C@@H](COCc1ccccc1)ONC(=O)c1cc(C(F)(F)F)cc(C(F)(F)F)c1 [Compound 4] | > 12.5

Further lines, results first:

Row | MIC [µM] | Compound
29 | 6.25 (≈ 4.25 µg/mL) | CC(C)C[C@H](ONC(=O)[C@@H](COCc1ccccc1)ONC(=O)c1cc(C(F)(F)F)cc(C(F)(F)F)c1)C(=O)Nc1ccc(C#N)cc1 [Compound 37]
30 | 1.56 (≈ 1.1 µg/mL) | CC(C)C[C@H](ONC(=O)[C@@H](COCc1ccccc1)ONC(=O)c1cc(C(F)(F)F)cc(C(F)(F)F)c1)C(=O)Nc1ccc2ccccc2c1 [Compound 39]
31 | > 12.5 | CC(C)C[C@H](ONC(=O)[C@@H](COCc1ccccc1)ONC(=O)C(C)(C)C)C(=O)Nc1ccc2c(c1)OC(F)(F)O2 [Compound 42]
32 | 3.13 (≈ 2.13 µg/mL) | CC(C)C[C@H](ONC(=O)[C@@H](COCc1ccccc1)ONC(=O)c1ccc2c(c1)OC(F)(F)O2)C(=O)Nc1ccc2c(c1)OC(F)(F)O2 [Compound 52]
33 | > 12.5 | CC(C)C[C@H](ONC(=O)[C@@H](COCc1ccccc1)ONC(=O)c1cc(C(F)(F)F)cc(C(F)(F)F)c1)C(=O)NOCc1ccccc1 [Compound 40]
34 | > 12.5 | CC(C)C[C@H](ONC(=O)[C@@H](COCc1ccccc1)ONC(=O)c1cc(C(F)(F)F)cc(C(F)(F)F)c1)C(=O)NOc1ccccc1 [Compound 41]
35 | 6.25 (≈ 4 µg/mL) | CC(C)C[C@H](NC(=O)[C@@H](COCc1ccccc1)ONC(=O)c1cc(C(F)(F)F)cc(C(F)(F)F)c1)C(=O)Nc1ccccc1 [Compound 56]
36 | > 12.5 | CC(C)C[C@H](ONC(=O)[C@@H](COCc1ccccc1)NC(=O)c1cc(C(F)(F)F)cc(C(F)(F)F)c1)C(=O)Nc1ccccc1 [Compound 57]
37 | 6.25 (≈ 4.37 µg/mL) | CC(C)C[C@H](ONC(=O)[C@@H](COCc1ccccc1)ONC(=O)c1cc(C(F)(F)F)cc(C(F)(F)F)c1)C(=O)Nc1ccc2c(c1)OCO2 [Compound 34]
38 | > 12.5 | CC(C)C[C@H](ONC(=O)[C@@H](COCc1ccccc1)ONC(=O)c1ccc[nH]1)C(=O)Nc1ccc2c(c1)OC(F)(F)O2 [Compound 51]
39 | > 12.5 | CC(C)C[C@H](ONC(=O)[C@@H](COCc1ccccc1)ONC(=O)c1c(F)cccc1F)C(=O)Nc1ccc2c(c1)OC(F)(F)O2 [Compound 48]
40 | > 12.5 | CC(C)C[C@H](ONC(=O)[C@@H](COCc1ccccc1)ONS(=O)(=O)c1ccc(C(F)(F)F)cc1)C(=O)Nc1ccc2c(c1)OC(F)(F)O2 [Compound 54]
41 | > 12.5 | CC(C)C[C@H](ONC(=O)[C@@H](COCc1ccccc1)ONC(=O)C12CC3CC(CC(C3)C1)C2)C(=O)Nc1ccc2c(c1)OC(F)(F)O2 [Compound 43]
42 | > 12.5 | CC(C)C[C@H](ONC(=O)[C@@H](COCc1ccccc1)ONC(=O)c1cc(C(F)(F)F)cc(C(F)(F)F)c1)C(=O)N1CCOCC1 [Compound 32]
43 | > 12.5 | CC(C)C[C@H](ONC(=O)[C@@H](COCc1ccccc1)ONS(=O)(=O)c1cc(C(F)(F)F)cc(C(F)(F)F)c1)C(=O)Nc1ccc2c(c1)OC(F)(F)O2 [Compound 55]
44 | > 12.5 | Cc1noc(C)c1C(=O)NO[C@H](COCc1ccccc1)C(=O)NO[C@@H](CC(C)C)C(=O)Nc1ccc2c(c1)OC(F)(F)O2 [Compound 50]
45 | 3.13 (≈ 2.11 µg/mL) | CC(C)C[C@H](ONC(=O)[C@@H](COCc1ccccc1)ONC(=O)c1cc(C(F)(F)F)cc(C(F)(F)F)c1)C(=O)Nc1ccc(F)cc1 [Compound 36]
46 | > 12.5 | Cc1cc(C)cc(C(=O)NO[C@H](COCc2ccccc2)C(=O)NO[C@@H](CC(C)C)C(=O)Nc2ccc3c(c2)OC(F)(F)O3)c1 [Compound 45]
47 | > 12.5 | CC(C)C[C@H](ONC(=O)[C@@H](COCc1ccccc1)ONC(=O)c1ccc2ccccc2c1)C(=O)Nc1ccc2c(c1)OC(F)(F)O2 [Compound 46]
48 | > 12.5 | CC(C)C[C@H](ONC(=O)[C@@H](COCc1ccccc1)ONC(=O)c1ccccc1)C(=O)Nc1ccc2c(c1)OC(F)(F)O2 [Compound 44]
49 | > 12.5 | Cc1ccc(S(=O)(=O)NO[C@H](COCc2ccccc2)C(=O)NO[C@@H](CC(C)C)C(=O)Nc2ccc3c(c2)OC(F)(F)O3)cc1 [Compound 53]
50 | > 12.5 | CC(C)C[C@H](ONC(=O)[C@@H](COCc1ccccc1)ONC(=O)c1cc(C(F)(F)F)cc(C(F)(F)F)c1)C(=O)Nc1ccc(N2CCOCC2)cc1 [Compound 33]

From patent US20240315992A1, “AMINOXY ACID-BASED ANTIBACTERIAL COMPOUNDS AND METHODS THEREOF” (The University of Hong Kong, priority 2023, published 2024)
